# Laboratory results as given in patent US10472346B2, “Potent gamma-secretase modulators” (The General Hospital Coporation, priority 2014, dated 2019).
# What was measured:
# [1] = Plasma concentrations (pharmacokinetics) in male Sprague Dawley rats, iv and po; assay type: in vivo; conditions: rat
# Experimental: FIG. 4. Time course of administration of Compound 1 to male Sprague Dawley rats: iv (1 mg/kg) or po (5 mg/kg). […] Clearance was 89 mL/hr/kg. T1/2 (iv) was 5.9 hrs.
# Efficacy Studies in Rat. Plasma Concentrations of Compound 1 in Male Sprague Dawley Rats. FIG. 4 depicts the time course of administration of Compound 1 to male Sprague Dawley rats: iv (1 mg/kg) or [p (5 mg/kg). […] Clearance was 89 mL/hr/kg. T1/2 (iv) was 5.9 hrs.
# [2] = test system: APP-CTF (C-terminal fragment); experiment: Accumulation of APP-CTFs in brain extracts (immunoblot, anti-APP carboxyl-terminal antibody); assay type: in vivo; conditions: administered doses of 5, 25 or 50 mg/kg
# Experimental: FIG. 7: Protein blots of indicated proteins from subjects administered vehicle and Compound 1 at doses of 5, 25 and 50 mg/kg.
# Brain extracts which were prepared using 1.0% SDS run on SDS-PAGE, transferred to PVDF membranes and immunoblots were performed using an anti-APP carboxyl-terminal antibody.
# total Aβ peptides = experiment: Levels of total Aβ peptides, SHSYSY-APP cell-based assay (sandwich ELISA); conditions: concentration response, percent solvent control
# Excerpt: FIG. 8: Representative concentration response curves of Compound 1 using our primary and orthogonal medium throughput SHSYSY-APP cell-based screening assays (10). Compounds are first screened two times in triplicate in our UCSD sandwich Aβ42 ELISA on sequential days and the average of the two assays must be within 3-fold of each other before being entered into the CDD relational database. The UCSD sandwich ELISA assay can easily handle 20 compounds per week. Compounds with Aβ42 IC50 values <100 nM continue through the testing funnel. The Z′ score and the % CV for the UCSD Aβ42 sandwich ELISA assay are 0.8 and 4, respectively. For the Meso Scale triplex assay the Z′ scores are 0.7, 0.9 and 0.6 Aβ42, Aβ40 and Aβ38, respectively and the % CV's are 7, 2 and 1 for Aβ42, Aβ40 and Aβ38, respectively. Aβ total peptides are measured using a sandwich ELISA.
# The figure depicts percent solvent control (Aβ40/Aβ42/AβTotal) (left axis) and percent solvent control (Aβ38) again log of, concentration of Compound 1.
# Aβ42 levels [3] = experiment: Effects of 7 days treatment on mouse plasma and brain Aβ42 levels; assay type: in vivo, male C57BL/6J mouse; conditions: for percent reduction of Aβ42 levels in brain: mouse brain; for percent reduction of Aβ42 levels in plasma: mouse plasma
# Experimental: FIG. 2: The effects of Compound 1 after 7-days treatment on Aβ42 levels in male C57BL/6J mouse plasma A) (plasma) where the percent reduction was 76%, 91% and 96% for dosages of 10, 25, and 50 mg/kg, respectively and in male C57BL/6J mouse brain B) where the percent reduction was 36%, 69% and 85% for dosages of 10, 25, and 50 mg/kg, respectively.
# Effects of Compound 1 (7 Days Treatment) on Mouse Plasma and Brain Aβ42 Levels. The effects of Compound 1 after 7-days treatment on Aβ42 levels in mouse plasma and brain are depicted in FIG. 2A (plasma) and FIG. 2B (brain). For FIG. 2A, the percent reduction was 76%, 91% and 96% for dosages of 10, 25, and 50 mg/kg, respectively. For FIG. 2B, the percent reduction was 36%, 69% and 85% for dosages of 10, 25, and 50 mg/kg, respectively.
# Aβ42 levels [4] = experiment: Effects of 9 days treatment on rat plasma and CSF Aβ42 levels; assay type: in vivo, male Sprague-Dawley rat; conditions: for reduction in CSF Aβ42 levels: rat CSF; for reduction in plasma Aβ42 levels: rat plasma
# Experimental: FIG. 5: The effects of Compound 1 after 9-days treatment on Aβ42 levels in male Sprague-Dawley rat plasma A) where the reduction in plasma levels was 81%, 93% and 97%, for dosages of 5, 25, and 50 mg/kg, respectively and male Sprague-Dawley rat CSF B) where the reduction in CSF levels was 43%, 73% and 86%, for dosages of 5, 25, and 50 mg/kg, respectively.
# Effects of Compound 1 (9 Days Treatment) on Rat Plasma and CSF Aβ42 Levels. The effects of Compound 1 after 9-days treatment on Aβ42 levels in rat plasma and CSF are depicted in FIG. 5A (plasma) and FIG. 5B (CSF). For FIG. 5A, the reduction in plasma levels was 81%, 93% and 97%, for dosages of 5, 25, and 50 mg/kg, respectively. For FIG. 5B, the reduction in CSF levels was 43%, 73% and 86%, for dosages of 5, 25, and 50 mg/kg, respectively.
# Notch processing = Notch processing in transfected H4-APP751 cells (Western blot, Myc antibody, NICD); assay type: cell-based, human; conditions: H4-APP751 cells transfected with the NAE construct, different concentrations, 24 hrs
# Excerpt: Cells were harvested 48 hrs post transfection and applied to Western blotting analysis. Myc antibody was utilized to assess the NAED and NICD tagged with Myc on their N-termini. β-Actin was utilized as the loading control.
# Cells were harvested 48 hrs post transfection and subjected to Western blotting analysis. Myc antibody was utilized to assess the NδED and NICD tagged with Myc on their N-termini.
# Stable H4 human neuroglioma cells over-expressing human APP751, or H4-APP751 cells, were transfected with the NAE construct, and then treated with different concentrations SGSM Compound 1 (Lanes 1-6) or DAPT (Lanes 7-10) for another 24 hrs and are shown in FIG. 9. Cells were harvested 48 hrs post transfection and applied to Western blotting analysis. Myc antibody was utilized to assess the NAED and NICD tagged with Myc on their N-termini β-Actin was utilized as the loading control.
# Stably-transfected H4 human neuroglioma cells over-expressing human APP751 (H4-APP751) cells, were transfected with the Notch NδED construct, and then treated with vehicle, or different doses of GSMs (40 nM, 200 nM, 1000 nM, and 5000 nM) for 24 hrs. Cells were harvested 48 hrs post transfection and subjected to Western blotting analysis.
smiles,measurement,setting,value
"COc1nc(-c2cc(C)c(N[C@@H](C)c3ccc(F)cc3)nn2)ccc1-n1cnc(C)c1 [Compound 1, (S)—N-(1-(4-fluorophenyl)ethyl)-6-(6-methoxy-5-(4-methyl-1H-imidazol-1-yl)pyridin-2-yl)-4-methylpyridazin-3-amine]",bioavailability,[1]; iv (1 mg/kg) or po (5 mg/kg),60.3%
same,clearance,[1]; iv (1 mg/kg) or po (5 mg/kg),1.48 mL/min/kg
same,half-life,"[1]; iv (1 mg/kg), read-out: T1/2 (iv) (converted)",5.9 h
same,accumulation of APP-CTF (C-terminal fragment),[2],does not cause accumulation of APP-CTF
same,levels of total Aβ peptides,total Aβ peptides,does not decrease levels of total Aβ peptides
same,percent reduction of Aβ42 levels in brain,Aβ42 levels [3]; 10 mg/kg,36%
same,percent reduction of Aβ42 levels in brain,Aβ42 levels [3]; 25 mg/kg,69%
same,percent reduction of Aβ42 levels in brain,Aβ42 levels [3]; 50 mg/kg,85%
same,percent reduction of Aβ42 levels in plasma,Aβ42 levels [3]; 10 mg/kg,76%
same,percent reduction of Aβ42 levels in plasma,Aβ42 levels [3]; 25 mg/kg,91%
same,percent reduction of Aβ42 levels in plasma,Aβ42 levels [3]; 50 mg/kg,96%
same,reduction in CSF Aβ42 levels,Aβ42 levels [4]; 5 mg/kg,43%
same,reduction in CSF Aβ42 levels,Aβ42 levels [4]; 25 mg/kg,73%
same,reduction in CSF Aβ42 levels,Aβ42 levels [4]; 50 mg/kg,86%
same,reduction in plasma Aβ42 levels,Aβ42 levels [4]; 5 mg/kg,81%
same,reduction in plasma Aβ42 levels,Aβ42 levels [4]; 25 mg/kg,93%
same,reduction in plasma Aβ42 levels,Aβ42 levels [4]; 50 mg/kg,97%
same,"Notch processing (NICD, Western blot)",Notch processing,did not inhibit Notch processing
